Laboratory results taken from ChEMBL document CHEMBL1800013, “Small molecule inhibitors of SHP2 tyrosine phosphatase discovered by virtual screening” (Bioorg Med Chem Lett, 2011).
Activity calls are given as the source filed them. The rule behind the calls is not given here.

Experiments:
[1] = molecular target: T1, Tyrosine-protein phosphatase non-receptor type 11 (Homo sapiens) (UniProt Q06124); assay: Inhibition of SHP2 catalytic domain assessed as inhibition of pNPP to p-nitrophenol conversion at 50 uM after 5 mins by spectrophotometry
T1 sequence (whole entry): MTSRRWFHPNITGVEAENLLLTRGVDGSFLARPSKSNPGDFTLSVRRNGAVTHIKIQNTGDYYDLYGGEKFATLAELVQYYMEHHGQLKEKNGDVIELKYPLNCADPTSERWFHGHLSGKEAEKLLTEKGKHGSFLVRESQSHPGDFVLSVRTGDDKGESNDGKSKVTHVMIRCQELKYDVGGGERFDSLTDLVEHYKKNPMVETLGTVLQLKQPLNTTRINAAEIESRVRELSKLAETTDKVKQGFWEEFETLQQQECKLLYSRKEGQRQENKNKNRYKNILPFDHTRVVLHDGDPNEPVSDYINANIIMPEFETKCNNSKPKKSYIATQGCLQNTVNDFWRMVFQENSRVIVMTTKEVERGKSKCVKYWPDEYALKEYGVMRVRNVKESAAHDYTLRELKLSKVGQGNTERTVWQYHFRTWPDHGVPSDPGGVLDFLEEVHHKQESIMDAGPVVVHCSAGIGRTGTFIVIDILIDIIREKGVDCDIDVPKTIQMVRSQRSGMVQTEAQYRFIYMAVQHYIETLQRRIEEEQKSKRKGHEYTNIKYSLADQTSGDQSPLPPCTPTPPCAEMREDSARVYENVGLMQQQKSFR

[2] = molecular target: T1, Tyrosine-protein phosphatase non-receptor type 11 (Homo sapiens); assay: Inhibition of SHP2 catalytic domain assessed as inhibition of pNPP to p-nitrophenol conversion at 1000 uM after 5 mins by spectrophotometry
[3] = molecular target: T2, Tyrosine-protein phosphatase non-receptor type 11 (Homo sapiens, UniProt Q06124); assay: Inhibition of SHP2 catalytic domain assessed as inhibition of pNPP to p-nitrophenol conversion after 5 mins by spectrophotometry
T2 sequence (Q06124 whole entry): T1 sequence (whole entry)

[4] = molecular target: T3, Tyrosine-protein phosphatase non-receptor type 1 (Homo sapiens, UniProt P18031); assay: Inhibition of PTP1B
T3 sequence (P18031 whole entry): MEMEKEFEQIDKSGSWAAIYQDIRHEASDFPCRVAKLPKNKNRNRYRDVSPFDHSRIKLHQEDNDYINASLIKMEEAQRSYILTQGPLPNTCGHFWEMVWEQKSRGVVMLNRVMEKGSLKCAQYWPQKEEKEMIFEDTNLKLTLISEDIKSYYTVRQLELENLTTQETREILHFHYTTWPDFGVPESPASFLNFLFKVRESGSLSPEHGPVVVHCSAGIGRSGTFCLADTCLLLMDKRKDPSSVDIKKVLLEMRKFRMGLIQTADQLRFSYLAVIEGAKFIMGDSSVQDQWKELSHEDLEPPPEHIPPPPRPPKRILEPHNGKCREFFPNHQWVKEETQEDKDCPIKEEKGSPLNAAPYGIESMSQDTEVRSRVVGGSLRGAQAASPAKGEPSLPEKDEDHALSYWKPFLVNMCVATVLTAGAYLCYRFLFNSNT

[5] = molecular target: Tyrosine-protein phosphatase non-receptor type 6 (Homo sapiens, UniProt P29350); assay: Inhibition of SHP1
Tyrosine-protein phosphatase non-receptor type 6, sequence (P29350 whole entry): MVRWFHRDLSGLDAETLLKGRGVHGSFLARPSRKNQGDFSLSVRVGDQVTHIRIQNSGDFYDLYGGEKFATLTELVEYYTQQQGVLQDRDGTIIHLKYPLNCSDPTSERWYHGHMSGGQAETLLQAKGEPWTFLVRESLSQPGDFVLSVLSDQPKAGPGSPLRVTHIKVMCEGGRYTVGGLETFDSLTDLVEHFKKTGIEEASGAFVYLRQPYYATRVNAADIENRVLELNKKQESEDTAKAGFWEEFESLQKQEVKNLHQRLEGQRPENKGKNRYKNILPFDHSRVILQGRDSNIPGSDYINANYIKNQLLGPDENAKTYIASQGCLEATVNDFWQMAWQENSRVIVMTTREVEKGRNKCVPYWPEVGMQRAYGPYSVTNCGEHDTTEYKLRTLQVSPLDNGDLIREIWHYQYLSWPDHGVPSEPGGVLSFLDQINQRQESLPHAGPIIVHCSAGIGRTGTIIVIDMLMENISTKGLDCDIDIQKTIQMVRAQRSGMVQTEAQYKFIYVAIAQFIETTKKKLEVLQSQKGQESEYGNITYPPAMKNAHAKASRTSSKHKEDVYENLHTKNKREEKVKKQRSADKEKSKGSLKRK

SMILES: O=C(CC(Cc1ccccc1)C(=O)O)Nc1ccc([N+](=O)[O-])cc1 (centres undefined)
- inhibition [1]: 1%

SMILES: CC1=NN(c2ccc(S(=O)(=O)O)cc2C)C(=O)C1
- inhibition [2]: inactive

SMILES: O=C(O)c1ccc(NS(=O)(=O)c2cccc(C(=O)Nc3cccc(C(=O)O)c3)c2)cc1
- inhibition [1]: 44%

SMILES: CC(=O)Nc1ccc(OS(=O)(=O)c2cccc(C(=O)O)c2)cc1
- inhibition [1]: 3.5%

SMILES: O=C(O)c1ccc(CNS(=O)(=O)c2ccc(C(=O)O)cc2)cc1
- inhibition [1]: 40.5%

SMILES: COc1cc(/C=C2\SC(=S)N(C(CC(=O)O)C(=O)O)C2=O)ccc1O (centres undefined)
- inhibition [1]: 69.5%

SMILES: O=C(O)Cc1c(C(=O)O)[nH]c2ccc(C(=O)O)cc12
- inhibition [1]: 1%

SMILES: O=C(O)C1=NN(c2ccccc2)C(=O)C1
- inhibition [2]: inactive

SMILES: Cc1ccc(C(=O)O)cc1NC(=O)[C@H]1CC=CC[C@@H]1C(=O)O
- inhibition [1]: 6%

SMILES: COc1ccc(/C=C2\C(=O)N(c3ccc(C(=O)O)cc3)N=C2C)cc1[N+](=O)[O-]
- inhibition [1]: 41%

SMILES: O=C(O)C1=NN(c2ccc(S(=O)(=O)O)cc2)C(=O)C1
- IC50 [3]: 155 µM

SMILES: O=C(O)c1ccc(NS(=O)(=O)c2cc(C(=O)O)ccc2Br)cc1
- inhibition [1]: 34.5%

SMILES: O=C(O)c1cccc(NS(=O)(=O)c2ccc3c4c(cccc24)C(=O)N3)c1
- inhibition [1]: 4.5%

SMILES: O=C(O)c1ccccc1NS(=O)(=O)c1cccc(C(=O)N2CCCc3ccccc32)c1
- inhibition [1]: 47%

SMILES: O=C(O)c1cccc(NS(=O)(=O)c2ccc(Cl)c(C(=O)O)c2)c1
- inhibition [1]: 7%

SMILES: O=C(O)c1ccccc1NC(=O)c1ccccc1-c1ccccc1C(=O)O
- inhibition [1]: 38%

SMILES: CC(=O)N(c1ccc2oc3c(c2c1)CCCC3)S(=O)(=O)c1ccc(C(=O)O)cc1
- IC50 [4]: 120 µM
- IC50 [3]: 181 µM
- IC50 [5]: 160 µM
- inhibition [1]: 74.5%

SMILES: O=C(O)/C=C/c1cccc(NS(=O)(=O)c2ccc(C(=O)O)cc2)c1
- inhibition [1]: 5.5%

SMILES: O=C(O)c1ccccc1NS(=O)(=O)c1cccc2nsnc12
- inhibition [1]: 0%

SMILES: Cc1ccc(/C=C/C(=O)O)cc1S(=O)(=O)Nc1ccc(C(=O)O)cc1
- inhibition [1]: 28%

SMILES: O=C(O)c1cccc(N/C(=N\S(=O)(=O)c2ccc(Cl)cc2)c2ccccc2)c1
- inhibition [1]: 10.5%

SMILES: CC(=O)c1c(C)oc2ccc(NS(=O)(=O)c3cccc(C(=O)O)c3)cc12
- IC50 [4]: 38 µM
- IC50 [3]: 176 µM
- IC50 [5]: 85 µM
- inhibition [1]: 71.5%

SMILES: O=C(O)c1cccc(-c2ccc(/C=C/[N+](=O)[O-])o2)c1
- inhibition [1]: 95%

SMILES: O=C(O)c1ccc(C2(c3ccc(C(=O)O)cc3)OC(=O)c3ccccc32)cc1
- inhibition [1]: 1.5%

SMILES: CC1CCN(S(=O)(=O)c2ccc3[nH]cc(C(=O)O)c(=O)c3c2)CC1
- inhibition [1]: 0.5%

SMILES: Cc1cc(S(=O)(=O)O)ccc1N1N=C(C(=O)O)CC1=O
- IC50 [3]: 41 µM

SMILES: O=C(O)c1ccc(NCc2ccccc2)c(NC(=O)C2CC=CCC2C(=O)O)c1 (centres undefined)
- inhibition [1]: 43%

SMILES: CS(=O)(=O)N(CC(=O)Nc1ccccc1C(=O)O)c1ccc(F)cc1
- inhibition [1]: 24%

SMILES: Cc1cc(C(=O)O)ccc1NC(=O)C1CC=CCC1C(=O)O (centres undefined)
- inhibition [1]: 13%

SMILES: CCOc1cc(/C=N/Nc2ccc(S(=O)(=O)O)cc2)ccc1O
- inhibition [1]: 51%

SMILES: O=C(O)c1cc(S(=O)(=O)Nc2ccccc2C(=O)O)ccc1Br
- inhibition [1]: 4.5%

SMILES: Cc1ccccc1NS(=O)(=O)c1cccc(C(=O)Nc2ccccc2C(=O)O)c1
- inhibition [1]: 50.5%

SMILES: O=C(O)c1cc(N/C(=N\S(=O)(=O)c2ccccc2)c2ccccc2)ccc1O
- inhibition [1]: 12.5%

SMILES: O=C(O)c1ccc(/N=N/c2c(O)c(C(=O)O)cc3ccccc23)cc1
- inhibition [1]: 8.5%

SMILES: O=C(O)c1ccc(NC(=O)C2CC=CCC2C(=O)O)cc1O (centres undefined)
- inhibition [1]: 4.5%

SMILES: COc1ccc(C2Nc3ccc(C(=O)O)cc3C3C=CCC32)cc1[N+](=O)[O-] (centres undefined)
- inhibition [1]: 1.5%

SMILES: O=C(O)Cc1ccc2[nH]c3ccc(CC(=O)O)cc3c2c1
- inhibition [1]: 52.5%

SMILES: O=[N+]([O-])c1ccc(/C=N/Nc2ccc(S(=O)(=O)O)cc2)cc1
- inhibition [1]: 91.5%
